From patent publication US7368287B2, “Use of L-α-lysophosphatidylcholine to obtain the differentiation of monocytes into mature dendritic cells in vitro” (Biomerieux, priority 2002, dated 2008)

What was measured:
PAF receptor = assay: CD86 expression in presence of PAF or of the PAF antagonist BN52021; assay type: cell-based, human
Description: The phenotype of the “control” and “LPC” cells is analyzed by flow cytometry on a FACSCalibur (Becton Dickinson, Francklin Lakes, N.J., USA) using FITC (fluorosceine isothiocyanate)-conjugated anti-CD14, anti-HLA-DR and anti-CD80 and PE (phycoerythrin)-conjugated anti-CD1a, anti-CD83, anti-CD86 and anti-CD40 (Beckman Coulter). According to the state of the art, monocytes preferentially have a CD14+ CD1a− phenotype, immature dendritic cells preferentially have a CD14− CD1a+CD86− phenotype, and mature dendritic cells preferentially have a CD14− CD1a intermediate—CD86+ phenotype.
Thus, a solution of PAF (Sigma, 5 μM) was added to the culture medium on the 5th day of monocyte differentiation. The expression of CD86 by the “control” cells and by the “LPC” cells, obtained in the presence or in the absence of PAF, was analyzed according to the protocol described in example 2, and the results are given in table 9.
Thus, a solution of the PAF antagonist BN52021 (Biomol, Plymouth Meeting, USA, 100 μM) was added to the culture medium on the 5th day of monocyte differentiation. The expression of CD86 by the “control” and “LPC” cells, obtained in the presence or in the absence of BN52021, was analyzed according to the protocol described in example 2, and the results are given in table 10.

NF-κB = conditions: high concentration of LPC (50 μM); cited from earlier work
PPARγ = biological target: T1, PPARγ (Homo sapiens, UniProt P37231); assay: PPAR binding activity by gel shift on nuclear proteins of treated monocytes; assay type: cell-based
T1 construct: After having harvested the cells, the nuclear proteins were extracted with the Nuclear extract Kit (Sigma); endogenous in cells; host or cells: monocytes undergoing differentiation into dendritic cells (nuclear extract)
T1 sequence (P37231 1-505): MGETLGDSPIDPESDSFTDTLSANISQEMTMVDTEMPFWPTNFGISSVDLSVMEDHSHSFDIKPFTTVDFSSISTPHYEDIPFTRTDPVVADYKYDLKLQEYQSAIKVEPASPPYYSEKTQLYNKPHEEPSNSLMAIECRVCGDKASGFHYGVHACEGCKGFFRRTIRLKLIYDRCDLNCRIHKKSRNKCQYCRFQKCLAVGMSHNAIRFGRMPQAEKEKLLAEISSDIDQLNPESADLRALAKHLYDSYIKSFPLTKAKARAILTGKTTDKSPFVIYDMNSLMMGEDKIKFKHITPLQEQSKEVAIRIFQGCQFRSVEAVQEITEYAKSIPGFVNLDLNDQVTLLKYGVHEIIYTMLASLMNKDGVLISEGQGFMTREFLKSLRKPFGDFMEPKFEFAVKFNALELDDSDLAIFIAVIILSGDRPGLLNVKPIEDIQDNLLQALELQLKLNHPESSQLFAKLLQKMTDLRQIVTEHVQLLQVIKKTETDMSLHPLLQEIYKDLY
Description: (§1) Next, the inventors investigated the transcription factors involved in the maturation process induced by LPC. In order to determine whether PPARs are involved in the LPC-induced maturation, the ability of the two transcription factors PPARγ and PPARδ to bind was analyzed using the gel shift technique. 3 isotypes of PPAR nuclear receptors (peroxisome proliferator-activated receptor) exist: α, γ and δ. PPARγs are the targets for molecules of the thiazolidinedione class, such as ciglitizone, used in the treatment of type II diabetes. PPARδs have a broader expression and can be repressors of PPARγs. The monocytes undergoing differentiation were incubated for two hours with a solution of LPC (40 μM) (“LPC” cells). “Control” cells are also obtained in the absence of LPC in the culture medium. After having harvested the cells, the nuclear proteins were extracted with the Nuclear extract Kit (Sigma). The nuclear proteins were then brought into contact with a ratioactively labeled probe containing a response element recognized by PPARs. […] The PPAR binding activity was determined by measuring the intensity of these bands. These activities are expressed as a percentage with respect to the “control” cells. […]
(§2) The activity of the PPARγ and PPARδ transcription factors was measured in these cells by the gel shift technique, as described above.
(§3) INTRALIPID® regulates PPARs in vitro. […] The cells were harvested after 1 h, 2 h or 8 h of incubation with INTRALIPID®, the nuclear proteins were extracted and the activity of PPARγ and PPARδ was determined as described in example 6.
(§4) Secondly, a solution of INTRALIPID® (50 μg/ml of phospholipids) was added to the culture medium on the 5th day of monocyte differentiation, 15 minutes before the addition of a solution of LPC (40 μM) (“LPC+Intralipid” cells). […] The cells were harvested after 2 h of incubation, the nuclear proteins were extracted and the activity of PPARγ and PPARδ was determined as described in example 6.

PPARδ = assay: as above; assay type: cell-based, human
Description: as §1, §2, §3, §4

[1] = Table 6, LPC 40 μM, two hours, percentage with respect to control cells
[2] = Table 16, Intralipid 50 μg/ml phospholipids 15 minutes before LPC 40 μM, 2 h, control = 100%

L-α-lysophosphatidylcholine [LPC]
Expression of CD86 (PAF receptor; LPC cells = 100%, BN52021 100 μM added on 5th day): 100%
Expression of the CD86 marker (mean fluorescence intensity) (PAF receptor; PAF 5 μM and/or LPC added on 5th day): 287.11
Increase in the expression of CD86 (PAF receptor; versus control cells, PAF 5 μM and/or LPC): 470%
Activity of the transcription factor NF-κB (NF-κB): inhibits
PPARγ binding activity (PPARγ; [1]): 0%
PPARγ activity (PPARγ; [2]): 1%
PPARδ binding activity (PPARδ; [1]): 263%
PPARδ activity (PPARδ; [2]): 160%
